16 compounds from ChEMBL document CHEMBL1143276, “Synthesis and antimicrobial activities of halogenated bis(hydroxyphenyl)methanes” (2009) can be followed below.

The test system of one assay is Candida albicans. Put plainly: Antifungal activity against Candida albicans ATCC 10231 after 48 to 72 hrs. It is filed as functional.
Another assay has as its system Salmonella typhimurium. Kind of assay: Antibacterial activity against Salmonella Typhimurium ATCC 14028 after 24 hrs. The format is functional, Salmonella enterica subsp. enterica serovar Typhimurium. As to conditions: Salmonella enterica, ATCC 14028, 24 h.
Assay [1] relates to Trichophyton mentagrophytes. Kind of assay: Antifungal activity against Trichophyton mentagrophytes IFO 40996 after 48 to 72 hrs. It is filed as functional.
Another assay has as its system Trichophyton rubrum. Put plainly: Antifungal activity against Trichophyton rubrum IFO 9185 after 48 to 72 hrs. It is filed as functional.
In a further assay the test system is Proteus vulgaris. Put plainly: Antibacterial activity against Proteus vulgaris ATCC 3851 after 24 hrs. The format is functional. As to conditions: ATCC 3851, 24 h.
The next assay concerns Escherichia coli. Put plainly: Antibacterial activity against Escherichia coli ATCC 25922 after 24 hrs. The format is functional. The settings on record: ATCC 25922, 24 h.
The next assay relates to Bacillus subtilis. Kind of assay: Antibacterial activity against Bacillus subtilis ATCC 6633 after 24 hrs. As to conditions: ATCC 6633, 24 h. The format is functional.
For a further assay, the system named is Staphylococcus aureus. Kind of assay: Antibacterial activity against Staphylococcus aureus ATCC 6538p after 24 hrs. It is filed as functional.
In the next assay the test system is Aspergillus fumigatus. Kind of assay: Antifungal activity against Aspergillus fumigatus HIC 6094 after 48 to 72 hrs. It is filed as functional.
In a further assay the test system is Micrococcus luteus. Kind of assay: Antibacterial activity against Micrococcus luteus […] after 24 hrs. It is filed as functional.

The structures appear in SMILES notation. Values after ≈ are worked out from the molar mass of the structure shown. Bounds are passed on as bounds.

A word on the MIC: it is the smallest concentration in the dilution series that meets the test's criterion for growth inhibition. Lower therefore signals greater potency.

In the case of `Oc1c(Br)cc(Br)cc1Cc1cc(Br)cc(Br)c1O`, the minimum inhibitory concentration (MIC) is > 100 µg/mL against Candida albicans; 3.12 µg/mL (≈ 6.05 µM) in the assay on Salmonella typhimurium; > 100 µg/mL in [1]; > 100 µg/mL in the assay on Trichophyton rubrum; 1.56 µg/mL (≈ 3.02 µM) against Proteus vulgaris; > 100 µg/mL against Escherichia coli. For the same compound, the MIC is 1.56 µg/mL (≈ 3.02 µM) in the assay on Bacillus subtilis, 1.56 µg/mL (≈ 3.02 µM) in the assay with Staphylococcus aureus, > 100 µg/mL in the assay with Aspergillus fumigatus and 1.56 µg/mL (≈ 3.02 µM) in the assay with Micrococcus luteus.
Regarding `Oc1cc(Cc2cc(O)c(O)c(Br)c2Br)c(Br)c(Br)c1O`, the MIC worked out at 25 µg/mL (≈ 45.6 µM) in the assay with Candida albicans; 25 µg/mL (≈ 45.6 µM) in the assay on Salmonella typhimurium; 1.56 µg/mL (≈ 2.85 µM) in assay [1]; 12.5 µg/mL (≈ 22.8 µM) against Trichophyton rubrum; 25 µg/mL (≈ 45.6 µM) against Proteus vulgaris; 50 µg/mL (≈ 91.3 µM) against Escherichia coli. In addition, the MIC in the assay on Bacillus subtilis turned out to be 25 µg/mL (≈ 45.6 µM); with Staphylococcus aureus it was 25 µg/mL (≈ 45.6 µM); with Aspergillus fumigatus, 12.5 µg/mL (≈ 22.8 µM); against Micrococcus luteus it was 25 µg/mL (≈ 45.6 µM).
On to `Oc1c(Cl)cc(Cl)cc1Cc1cc(Cl)cc(Cl)c1O`, for which the minimal inhibitory concentration (MIC) against Candida albicans was 100 µg/mL (≈ 296 µM); in the assay on Salmonella typhimurium, 3.12 µg/mL (≈ 9.23 µM); in assay [1], 12.5 µg/mL (≈ 37 µM); against Trichophyton rubrum, > 100 µg/mL; in the assay with Proteus vulgaris, 0.78 µg/mL (≈ 2.31 µM); against Escherichia coli it was > 100 µg/mL. The MIC against Bacillus subtilis was 1.56 µg/mL (≈ 4.62 µM); with Staphylococcus aureus, 0.78 µg/mL (≈ 2.31 µM); against Aspergillus fumigatus, > 100 µg/mL; with Micrococcus luteus, 0.78 µg/mL (≈ 2.31 µM).
`Oc1cc(Cl)c(Cc2cc(O)c(O)c(Cl)c2Cl)cc1O`: the minimum inhibitory concentration (MIC) in the assay on Candida albicans is 100 µg/mL (≈ 298 µM); in the assay on Salmonella typhimurium it was 25 µg/mL (≈ 74.5 µM); in [1] it was 25 µg/mL (≈ 74.5 µM); with Trichophyton rubrum, > 100 µg/mL; in the assay on Proteus vulgaris, 25 µg/mL (≈ 74.5 µM); with Escherichia coli it was 100 µg/mL (≈ 298 µM). The MIC against Bacillus subtilis was 25 µg/mL (≈ 74.5 µM); against Staphylococcus aureus, 12.5 µg/mL (≈ 37.3 µM); in the assay with Aspergillus fumigatus, > 100 µg/mL; with Micrococcus luteus, 12.5 µg/mL (≈ 37.3 µM).
For the compound `Oc1cc(Cc2cc(O)c(O)c(Cl)c2Cl)c(Cl)c(Cl)c1O`, the minimal inhibitory concentration (MIC) against Candida albicans turned out to be 50 µg/mL (≈ 135 µM); with Salmonella typhimurium, 25 µg/mL (≈ 67.6 µM); in assay [1] it was 3.12 µg/mL (≈ 8.43 µM); with Trichophyton rubrum, 50 µg/mL (≈ 135 µM); against Proteus vulgaris, 25 µg/mL (≈ 67.6 µM); against Escherichia coli, 50 µg/mL (≈ 135 µM). The MIC was found to be 25 µg/mL (≈ 67.6 µM) against Bacillus subtilis, 25 µg/mL (≈ 67.6 µM) in the assay with Staphylococcus aureus, 50 µg/mL (≈ 135 µM) against Aspergillus fumigatus and 25 µg/mL (≈ 67.6 µM) against Micrococcus luteus.
In the case of `Oc1ccccc1Cc1cc(Cl)ccc1O`, the MIC was 50 µg/mL (≈ 213 µM) against Candida albicans; 25 µg/mL (≈ 107 µM) in the assay with Salmonella typhimurium; 6.25 µg/mL (≈ 26.6 µM) in [1]; 50 µg/mL (≈ 213 µM) in the assay on Trichophyton rubrum; 25 µg/mL (≈ 107 µM) against Proteus vulgaris; 50 µg/mL (≈ 213 µM) in the assay with Escherichia coli. The minimal inhibitory concentration (MIC) was 25 µg/mL (≈ 107 µM) against Bacillus subtilis, 25 µg/mL (≈ 107 µM) in the assay on Staphylococcus aureus, 50 µg/mL (≈ 213 µM) in the assay with Aspergillus fumigatus and 25 µg/mL (≈ 107 µM) against Micrococcus luteus.
As to `Oc1cc(Br)c(Cc2cc(O)c(O)cc2Br)cc1O`, the MIC in the assay on Candida albicans is > 100 µg/mL; against Salmonella typhimurium it was 25 µg/mL (≈ 64.1 µM); in assay [1], 50 µg/mL (≈ 128 µM); with Trichophyton rubrum, > 100 µg/mL; against Proteus vulgaris, 25 µg/mL (≈ 64.1 µM); in the assay with Escherichia coli, > 100 µg/mL. In addition, the minimum inhibitory concentration (MIC) was 25 µg/mL (≈ 64.1 µM) against Bacillus subtilis, 25 µg/mL (≈ 64.1 µM) in the assay on Staphylococcus aureus, > 100 µg/mL against Aspergillus fumigatus and 12.5 µg/mL (≈ 32 µM) with Micrococcus luteus.
`Oc1cc(Cc2c(Br)c(O)c(O)c(Br)c2Br)c(Br)c(Br)c1O`: the minimal inhibitory concentration (MIC) with Candida albicans came out at 6.25 µg/mL (≈ 9.97 µM); against Salmonella typhimurium, 25 µg/mL (≈ 39.9 µM); in assay [1] it was 1.56 µg/mL (≈ 2.49 µM); against Trichophyton rubrum, 1.56 µg/mL (≈ 2.49 µM); with Proteus vulgaris, 12.5 µg/mL (≈ 19.9 µM); with Escherichia coli it was 50 µg/mL (≈ 79.8 µM). Also, the MIC against Bacillus subtilis turned out to be 25 µg/mL (≈ 39.9 µM); in the assay with Staphylococcus aureus, 25 µg/mL (≈ 39.9 µM); against Aspergillus fumigatus, 3.12 µg/mL (≈ 4.98 µM); in the assay with Micrococcus luteus, 25 µg/mL (≈ 39.9 µM).
In the case of `Oc1ccc(Cc2cc(O)c(O)cc2Cl)cc1O`, the MIC (in the assay on Candida albicans; in the assay on Salmonella typhimurium; in [1]; in the assay on Trichophyton rubrum; in the assay with Proteus vulgaris; in the assay on Escherichia coli) was > 100 µg/mL throughout. Further, the MIC with Bacillus subtilis was > 100 µg/mL; against Staphylococcus aureus, > 100 µg/mL; with Aspergillus fumigatus, > 100 µg/mL; in the assay with Micrococcus luteus it was 100 µg/mL (≈ 375 µM).
Take `Oc1cc(Cl)c(Cc2cc(O)c(O)cc2Cl)cc1O`: the minimal inhibitory concentration (MIC) against Candida albicans was > 100 µg/mL; against Salmonella typhimurium, 50 µg/mL (≈ 166 µM); in assay [1], 50 µg/mL (≈ 166 µM); in the assay with Trichophyton rubrum it was > 100 µg/mL; against Proteus vulgaris it was 50 µg/mL (≈ 166 µM); in the assay on Escherichia coli it was > 100 µg/mL. Besides, the minimum inhibitory concentration (MIC) against Bacillus subtilis was 50 µg/mL (≈ 166 µM); with Staphylococcus aureus, 50 µg/mL (≈ 166 µM); against Aspergillus fumigatus it was > 100 µg/mL; against Micrococcus luteus, 25 µg/mL (≈ 83 µM).
As for `Oc1ccccc1Cc1cccc(Cl)c1O`, the minimum inhibitory concentration (MIC) in the assay with Candida albicans came out at 50 µg/mL (≈ 213 µM); in the assay with Salmonella typhimurium it was 100 µg/mL (≈ 426 µM); in assay [1], 12.5 µg/mL (≈ 53.3 µM); in the assay with Trichophyton rubrum it was 100 µg/mL (≈ 426 µM); with Proteus vulgaris, 100 µg/mL (≈ 426 µM); against Escherichia coli, 100 µg/mL (≈ 426 µM). Besides, the MIC against Bacillus subtilis is 100 µg/mL (≈ 426 µM); with Staphylococcus aureus it was 50 µg/mL (≈ 213 µM); in the assay with Aspergillus fumigatus, 100 µg/mL (≈ 426 µM); in the assay with Micrococcus luteus, 50 µg/mL (≈ 213 µM).
As to `Oc1ccc(Cc2cc(O)c(O)cc2Br)cc1O`, the MIC (against Candida albicans; in the assay on Salmonella typhimurium; in assay [1]; against Trichophyton rubrum; in the assay on Proteus vulgaris; in the assay on Escherichia coli) was > 100 µg/mL each time. In addition, the MIC was > 100 µg/mL against Bacillus subtilis, > 100 µg/mL against Staphylococcus aureus, > 100 µg/mL in the assay on Aspergillus fumigatus and 100 µg/mL (≈ 321 µM) against Micrococcus luteus.
With `Brc1cc2c(cc1Cc1cc3c(cc1Br)OCO3)OCO2`, the MIC (against Candida albicans; in the assay with Salmonella typhimurium; in [1]; in the assay on Trichophyton rubrum; in the assay with Proteus vulgaris; in the assay with Escherichia coli) was > 100 µg/mL each time. Further, the minimum inhibitory concentration (MIC) against Bacillus subtilis, with Staphylococcus aureus, in the assay on Aspergillus fumigatus and against Micrococcus luteus was > 100 µg/mL in each case.
For the compound `C[C@@H]1[C@H](O)[C@@H](C)/C=C/C=C/C=C/C=C/C=C/C=C/C=C/[C@H](O[C@@H]2O[C@H](C)[C@@H](O)[C@H](N)[C@@H]2O)C[C@@H]2O[C@](O)(C[C@@H](O)C[C@@H](O)[C@H](O)CC[C@@H](O)C[C@@H](O)CC(=O)O[C@H]1C)C[C@H](O)[C@H]2C(=O)O` [AMPHOTERICIN B], the MIC was determined as 6.25 µg/mL (≈ 6.76 µM) with Candida albicans, 3.12 µg/mL (≈ 3.38 µM) in assay [1], 3.12 µg/mL (≈ 3.38 µM) against Trichophyton rubrum and 3.12 µg/mL (≈ 3.38 µM) with Aspergillus fumigatus.
In the case of `CC1(C)S[C@@H]2[C@H](NC(=O)[C@H](N)c3ccccc3)C(=O)N2[C@H]1C(=O)O` [AMPICILLIN], the minimum inhibitory concentration (MIC) against Salmonella typhimurium was determined as 3.12 µg/mL (≈ 8.93 µM); against Proteus vulgaris it was 3.12 µg/mL (≈ 8.93 µM); against Escherichia coli, 12.5 µg/mL (≈ 35.8 µM); against Bacillus subtilis it was 1.56 µg/mL (≈ 4.46 µM); in the assay with Staphylococcus aureus, 1.56 µg/mL (≈ 4.46 µM); against Micrococcus luteus, 1.56 µg/mL (≈ 4.46 µM).
For `Oc1ccc(Cl)cc1Cc1cc(Cl)ccc1O` [DICHLOROPHEN], the MIC with Candida albicans was found to be 25 µg/mL (≈ 92.9 µM); in the assay on Salmonella typhimurium, 6.25 µg/mL (≈ 23.2 µM); in [1], 12.5 µg/mL (≈ 46.4 µM); against Trichophyton rubrum, 50 µg/mL (≈ 186 µM); in the assay with Proteus vulgaris it was 12.5 µg/mL (≈ 46.4 µM); against Escherichia coli it was 100 µg/mL (≈ 372 µM). Also, the minimal inhibitory concentration (MIC) against Bacillus subtilis was 12.5 µg/mL (≈ 46.4 µM); with Staphylococcus aureus, 12.5 µg/mL (≈ 46.4 µM); in the assay on Aspergillus fumigatus it was 50 µg/mL (≈ 186 µM); against Micrococcus luteus, 12.5 µg/mL (≈ 46.4 µM).
